Patent US9663561B2, “Methods of treatment of cancer using SRC-modulating peptides” (The University of Toledo, priority 2006, dated 2017)

Columns and labels:
SYF and SYF+Src cells = test: Protein tyrosine phosphorylation in SYF and SYF+Src cells; type: cell-based, mouse; conditions: SYF+Src cells
Method: FIG. 9B. Both SYF and SYF+Src cells were treated with 100 μM ouabain for 5 min and analyzed as in A. Representative Western blots of three experiments are shown in both A and B.
(§1) Cells were lysed in RIPA buffer containing 1% Nonidet P40, 0.25% sodium deoxycholate, 150 mM NaCl, 1 mM EDTA, 1 mM phenylmethylsulfonyl fluoride, 1 mM sodium orthovanadate, 1 mM NaF, 10 μg/ml aprotinin, 10 μg/mlleupeptin, and 50 mM Tris-HCl (pH 7.4). Cell lysates were cleared by centrifugation at 16,000×g for […], and the supernatants (1 mg) were either immunoprecipitated with anti-α1 antibody or incubated with different GST-fusion proteins. The complexes were then pulled down by either protein G agarose or glutathione beads (Ma et al., 2000; Haas et al., 2002) and analyzed by Western blot.

PY-17 cells = test: FAK Tyr925 phosphorylation in α1 knockdown cells; type: cell-based, pig; conditions: 1 μM PP2 for 0.5 and 2 h
Method: FIG. 17D. P-11 and PY-17 cells were treated with 1 μM PP2 for 0.5 and 2 h. FAK and Src activation was measured by using the specific antibodies. A representative Western blot is shown, and the same experiments were repeated three times.
(§2) Cells were washed with PBS, solubilized in modified ice-cold radioimmune precipitation assay buffer, and subjected to immunoprecipitation or Western blot analysis. Protein signal was detected using the enhanced chemiluminescence kit and quantified using a Bio-Rad GS-670 imaging densitometer.

LLC-PK1 cells [1] = test: Recruitment of Src to the Na+/K+-ATPase signaling complex (co-immunoprecipitation); type: cell-based, pig; conditions: 1 μM pretreatment 15 min, then 1 μM ouabain 5 min
Method: FIG. 9C Inhibition of Src blocks ouabain-induced recruitment of Src to the Na+/K+-ATPase signaling complex. LLC-PK1 cells were pretreated with 1 μM PP2 or PP3 for 15 min and then exposed to 1 μM ouabain for 5 min. Cell lysates were immunoprecipitated and analyzed. Values are mean±SE of at least four independent experiments. * p<0.05.
as §1

LLC-PK1 cells [2] = test: Sensitivity of LLC-PK1-derived cells to selection agents; type: cell-based, pig
Method: Another batch of cells was co-transfected with pEYFP together with the pSuppressor-A4 siRNA and pBade-puro so that the co-expressed EYFP could be used as a marker to pick clones. Empty vector (pSuppressor) or A1 siRNA-transfected cells were co-selected and used as a control. The cells were selected with puromycin (1 μg/ml) 24 h posttransfection. Puromycin-resistant colonies were cloned and expanded. To rescue the Na+/K+-ATPase knockdown cells, cells were transfected with the pRc/CMV-α1AACm1. Selection was initiated with 3 μM ouabain because untransfected cells were very sensitive to ouabain. After about 1 week, ouabain-resistant colonies were isolated and expanded into stable cell lines in the absence of ouabain. G418 was not used because these cells are resistant to it, requiring more than 3 mg/ml to kill the untransfected cells.

[3] = target: T1, purified pig kidney Na+/K+-ATPase (Sus scrofa, UniProt P05024); test: ATPase activity of purified pig kidney Na+/K+-ATPase; type: biochemical
T1 construct: Na+/K+-ATPase was purified from pig kidney outer medulla using the Jorgensen method; from tissue; host or cells: pig kidney outer medulla
Excerpt: Src, without the first 85 amino acid residues, was purified from sf-9 cells as described (Ma et al., 2000) and used in the initial binding assays to ensure that Src binds to the Na+/K+-ATPase, but not the lipid composition in the purified Na+/K+-ATPase preparation. In subsequent experiments (e.g., phosphorylation and activity assays), purified recombinant full-length Src from Upstate Biotechnology was used. Na+/K+-ATPase was purified from pig kidney outer medulla using the Jorgensen method (Xie et al., 1996) and the preparations with specific activities between 1200 and 1400 μmol Pi/mg/h were used.
GST fusion proteins or His-tagged proteins were expressed in Escherichia coli BL21 and purified on glutathione beads or nickel column.

[4] = target: T2, Na+/K+-ATPase/Src complex (Sus scrofa, UniProt P05024); test: Src pY418 phosphorylation of the Na+/K+-ATPase/Src complex (Western blot); type: biochemical
T2 construct: Na+/K+-ATPase was purified from pig kidney outer medulla using the Jorgensen method; tissue Upstate Biotechnology (Src only); host or cells: pig kidney outer medulla (Na+/K+-ATPase)
Method: (§3) The Src kinase activity was assayed using a commercial kit (Haas et al., 2000). To determine how Na+/K+-ATPase affects Src kinase activity, the purified Src (4.5 U) was incubated with 5 μg of the purified Na+/K+-ATPase in the Src assay buffer for 30 min at room temperature. Afterward, both control Src or the Na+/K+-ATPase-bound Src were exposed to 10 μM ouabain and Src kinase activity was determined. In other experiments, the Src pY418 was measured by anti-pY418 antibody to indicate Src activation (Ma et al., 2000). To do so, the purified Src (4.5 U) was incubated with different amounts of the purified Na+/K+-ATPase or GST-Na+/K+ATPase constructs in phosphate-buffered saline (PBS) for 30 min at 37° C. Afterward, 2 mM ATP/Mg2+ was added. The reaction continued for 5 min at 37° C. and was stopped by addition of SDS sample buffer.
(§4) The purified Na+/K+-ATPase was solubilized in 1% Triton X-100 PBS and centrifuged at 100,000×g for 30 min. The supernatant was collected for the binding assay. GST-fusion proteins (5 μg) were conjugated on glutathione beads and incubated with the solubilized Na+/K+-ATPase in 500 μl PBS in the presence of 0.5% Triton X-100 at room temperature for 30 min. The beads were washed with the same buffer for four times. The bound Na+/K+ATPase was resolved on 10% SDS-PAGE and detected by Western blot. Reciprocal binding assay using GST-Na+/K+-ATPase constructs (5 μg) and purified Src lacking of first 85 amino acids (200 ng) or His-tagged Src constructs (100 ng) was done similarly. To test if native Na+/K+-ATPase binds Src, the above experiments were repeated in the absence of Triton X-100. To make the Na+/K+-ATPase/Src complex, 2-5 μg of the purified Na+/K+ATPase was incubated with 4.5 U of Src (˜10 ng) in PBS in the absence of Triton X-100 at room temperature for 30 min. The complex was either used for the experiments directly as indicated or collected by centrifugation at 100,000×g for 30 min.

Src [5] = target: T3, Src (Sus scrofa, UniProt K7GM45); test: Src pY418 in LLC-PK1 cells transiently transfected with YFP-tagged constructs; type: cell-based, pig; conditions: transient transfection 24 h
T3 construct: endogenous in cells; host or cells: LLC-PK1 (pig kidney)
Method: FIG. 22A. LLC-PK1 cells were transient-transfected with YFP-tagged ND1, ND, and CD3 for 24 h.
Cells were then lysed in RIPA buffer and probed for pY418. YFP were also transient-transfected into LLC-PK1 cells as control.

Src [6] = target: T4, Src (Gallus gallus, UniProt P00523); test: In vitro binding assay of GST-Na+/K+-ATPase constructs with purified or His-tagged Src; set-up: species or system chicken; conditions: purified Src lacking first 84 amino acids, 200 ng
T4 construct: His; made in house; host or cells: sf-9 cells (Src without the first 85 residues); Escherichia coli BL21 (His-tagged constructs)
Method: (§5) The preparation of chicken c-Src lacking the SH4 domain and GST-Src mutants were done (Ma et al., 2000). GST-NT (amino acid residue 6-90) [SEQ ID NO: 51], GST-CD2 (amino acid residue 152-288) [SEQ ID NO 52], and GST-CD3 (amino acid residue 350-785) [SEQ ID NO: 53] expression vectors were constructed based on the sequence of pig kidney Na+/K+-ATPase α1 subunit (see FIG. 3A).
as §4

Src [7] = test: as above; set-up: species or system chicken
Method: as §5, §4

Src [8] = target: T5, Src (Homo sapiens, UniProt P12931); test: Src pY418 autophosphorylation / activity of purified recombinant Src; type: biochemical; conditions: recombinant Src (4.5 U) incubated 30 min, then 2 mM ATP/Mg2+ 5 min
T5 construct: purified recombinant full-length Src from Upstate Biotechnology was used; purchased Upstate Biotechnology (Lake Placid, N.Y.)
Method: as §3
The reaction was stopped by adding 5× loading buffer. pY418 was probed to measure Src activation.

Src [9] = target: T3, Src; test: GST-CD3 pulldown of Src from LLC-PK1 cell lysates; type: binding, pig; conditions: 1 mg LLC-PK1 cell lysates
Method: FIG. 4C. A Western blot showing that Src was pulled down by GST-CD3 of Na+/K+-ATPase (Na/K) and H+/K+-ATPase (H/K), but not SERCA from 1 mg LLC-PK1 cell lysates.
as §1

purified Na+/K+-ATPase = target: T6, purified Na+/K+-ATPase (Sus scrofa, UniProt P05024); test: In vitro GST pulldown binding assay with purified Na+/K+-ATPase; set-up: species or system pig; conditions: GST-tagged Src truncations and purified Na+/K+-ATPase
T6 construct: Na+/K+-ATPase was purified from pig kidney outer medulla using the Jorgensen method; from tissue; host or cells: pig kidney outer medulla
Method: as §4

Src and ERK1/2 = test: Activation of Src and ERK1/2 in P-11, A4-11, PY-17 and AAC-19 cells (Western blot); type: cell-based, pig; conditions: for increase in SrcTyr(P)418: n=3
Method: FIGS. 18A and 18B. Cells were exposed to 100 nM ouabain for either 5 or 15 min, and the cell lysates (50 μg/lane) were analyzed by Western blot for active Src or active ERK1/2. Blots were probed first with anti-Tyr(P)^418-Src or anti-pERK antibody, then stripped, and reprobed for total Src or ERK1/2 to ensure equal loading.
FIGS. 18 C and 18D. Cells were treated with indicated concentrations of ouabain for 5 min, and total cell lysates were analyzed for Tyr(P)^418-Src and total Src or pERK1/2 and total ERK1/2 as in FIGS. 18A and 18B. A representative Western blot and combined quantitative data are shown. The quantitative data (relative ratio of pSrc/Src or pERK/ERK) from three independent experiments (mean±S.E.) were calculated relative to the control condition of P-11 cells. *, p<0.05 versus the respective control condition of each cell line. con, control.
as §2

CC(C)(C)n1nc(-c2ccc(Cl)cc2)c2c(N)ncnc21 [PP2]
block of ouabain-induced protein tyrosine phosphorylation (SYF and SYF+Src cells): able to block
increase in FAK Tyr(P)925 in knockdown cells (PY-17 cells): sensitive

Nc1ncnc2c1cnn2-c1ccccc1 [PP3]
block of ouabain-induced recruitment of Src to the Na+/K+-ATPase (LLC-PK1 cells [1]): failed to block

CN[C@@H]1[C@@H](O)[C@@H](O[C@@H]2[C@@H](O)[C@H](O[C@H]3O[C@H]([C@@H](C)O)[C@@H](O)[C@H](O)[C@H]3N)[C@@H](N)C[C@H]2N)OC[C@]1(C)O [Peptide G418, G418]
concentration required to kill the untransfected cells (LLC-PK1 cells [2]; untransfected cells): more than 3 mg/ml

CN(CC[C@H](N)CC(=O)N[C@H]1C=C[C@H](n2ccc(N)nc2=O)O[C@@H]1C(=O)O)C(=N)N [blasticidin]
sensitivity of knockdown cells (LLC-PK1 cells [2]; 15 μg/ml): sensitive to blasticidin

[O]=[V]([O-])([O-])[O-] [vanadate]
inhibition of the ATPase activity ([3]; 100 μM vanadate): complete inhibition
inhibition of the ATPase activity ([3]; 10-100 μM vanadate): completely inhibited the ATPase activity
Src pY418 of Na+/K+-ATPase/Src complex ([4]; 10-100 μM vanadate): no effect on Src pY418

CD3: YFP-tagged cytosolic domain 3 of Na+/K+-ATPase α1
Src phosphorylation (pY418) in LLC-PK1 cells (Src [5]): decrease Src phosphorylation

GST-CD2: GST fusion of pig kidney Na+/K+-ATPase α1 amino acid residue 152-288
interaction with Src (Src [6]): interacted
interaction with His-tagged SH3SH2 domain of Src (Src [7]): interacted with the SH3SH2 domain
interaction with His-tagged kinase domain of Src (Src [7]): not the kinase domain

GST-CD3: GST fusion of pig kidney Na+/K+-ATPase α1 amino acid residue 350-785
Src pY418 (autophosphorylation at Tyr418) (Src [8]): dose-dependent inhibition
interaction with Src (Src [6]): interacted
interaction with His-tagged SH3SH2 domain of Src (Src [7]): not the SH3SH2 domain
interaction with His-tagged kinase domain of Src (Src [7]): interacted with the kinase domain
pulldown of Src from LLC-PK1 cell lysates (Src [9]): pulled down

GST-H+/K+-CD3: GST fusion of the CD3 from rat gastric H+/K+-ATPase
pulldown of Src from LLC-PK1 cell lysates (Src [9]): pulled down Src

LRLEVKLGQGCFGEVWMGTWNGTTRVAIKTLKPGTMSPEAFLQEAQVMKKLRHE [KD1]
activation of Na+/K+-ATPase-inhibited Src ([4]; competing the binding motif for Src): effective in activating the Na+/K+-ATPase-inhibited Src
binding to Na+/K+-ATPase (purified Na+/K+-ATPase): binds Na+/K+-ATPase

epidermal growth factor: epidermal growth factor
increase in SrcTyr(P)418 (Src and ERK1/2; P-11 cells): 2.5±0.3 fold
stimulation of ERK1/2 (Src and ERK1/2; PY-17 cells): able to stimulate ERK1/2
increase in SrcTyr(P)418 (Src and ERK1/2; PY-17 cells): 1.7±0.2 fold
